According to ChEMBL document CHEMBL6114940, “Exploring the pharmaceutical potential of ammonium organotrifluoroborate functional group: Comprehensive chemical, metabolic, and plasma stability evaluation” (Eur J Med Chem, 2024):

Tests used:
[1] = Stability of compound in 0.5 M NaOH assessed as 1-methyl-1-(2-(2-(2-(((2R,3R,4S,5S,6R)-3,4,5-trihydroxy-6-(hydroxymethyl)tetrahydro-2H-pyran-2-yl)oxy)ethoxy)ethoxy)ethyl)piperidin-1-ium formation incubated for 72 hrs by LC-MS analysis; assay type: physicochemical
[2] = Stability of compound in 0.3 % H2O2 assessed as (2R,3S,4S,5R,6R)-2-(hydroxymethyl)-6-(2-(2-(2-(piperidin-1-yl)ethoxy)ethoxy)ethoxy)tetrahydro-2H-pyran-3,4,5-triol formation incubated for 1 hrs by LC-MS analysis; assay type: physicochemical
[3] = Stability of compound in 0.5 M NaOH assessed as 1-(boronomethyl)-1-(2-(2-(2-(((2R,3R,4S,5S,6R)-3,4,5-trihydroxy-6-(hydroxymethyl)tetrahydro-2H-pyran-2-yl)oxy)ethoxy)ethoxy)ethyl)piperidin-1-ium formation incubated for 72 hrs by LC-MS analysis; assay type: physicochemical
[4] = Metabolic stability in mouse liver microsomes assessed as drug hydrolysis by measuring 1-(boronomethyl)-1-(2-(2-(2-(((2R,3R,4S,5S,6R)-3,4,5-trihydroxy-6-(hydroxymethyl)tetrahydro-2H-pyran-2-yl)oxy)ethoxy)ethoxy)ethyl)piperidin-1-ium formation incubated for 1 hrs by LC-MS/MS analysis; assay type: ADME, Microsome
[5] = Stability of compound in 20 mM CH3COONH4 buffer at pH 5.8 assessed as solvolysis constant (K) incubated for 72 hrs by LC-MS analysis; assay type: physicochemical; set-up: unit not given beside the values; settings: pH 5.8, 72 h
[6] = Stability of compound in 50 mM Tris-HCL buffer at pH 7.4 assessed as half life incubated for 72 hrs by LC-MS analysis; assay type: physicochemical
[7] = Stability in mouse plasma measured after 1 hr by LC-HRMS analysis; assay type: ADME, cell-free; settings: read-out: Stability
[8] = Stability of compound in 50 mM Tris-HCL buffer at pH 7.4 assessed as solvolysis constant (K) incubated for 72 hrs by LC-MS analysis; assay type: physicochemical; settings: pH 7.4, 72 h
[9] = Stability of compound in 20 mM CH3COONH4 buffer at pH 5.8 assessed as half life incubated for 72 hrs by LC-MS analysis; assay type: physicochemical; settings: 20 mM ammonium acetate (CH3COONH4) buffer
[10] = Stability of compound in 0.9 % saline solution assessed as 1-(boronomethyl)-1-(2-(2-(2-(((2R,3R,4S,5S,6R)-3,4,5-trihydroxy-6-(hydroxymethyl)tetrahydro-2H-pyran-2-yl)oxy)ethoxy)ethoxy)ethyl)piperidin-1-ium formation incubated for 72 hrs by LC-MS analysis; assay type: physicochemical; settings: buffer
[11] = Stability of compound in 0.5 M NaOH assessed as half life incubated for 72 hrs by LC-MS analysis; assay type: physicochemical
[12] = Stability of compound in 0.5 M NaOH assessed as solvolysis constant (K) incubated for 72 hrs by LC-MS analysis; assay type: physicochemical; set-up: unit not given beside the values
[13] = Stability of compound in 0.9 % saline solution assessed as solvolysis constant (K) incubated for 72 hrs by LC-MS analysis; assay type: physicochemical; settings: buffer
[14] = Stability of compound in 0.05 M HCL assessed as half life incubated for 72 hrs by LC-MS analysis; assay type: physicochemical
[15] = Stability of compound in 0.9 % saline solution assessed as half life incubated for 72 hrs by LC-MS analysis; assay type: physicochemical
[16] = Stability of compound in 0.05 M HCL assessed as solvolysis constant (K) incubated for 72 hrs by LC-MS analysis; assay type: physicochemical; set-up: unit not given beside the values; settings: buffer
[17] = Stability of compound in 20 mM CH3COONH4 buffer at pH 5.8 assessed as 1-(boronomethyl)-1-(2-(2-(2-(((2R,3R,4S,5S,6R)-3,4,5-trihydroxy-6-(hydroxymethyl)tetrahydro-2H-pyran-2-yl)oxy)ethoxy)ethoxy)ethyl)piperidin-1-ium formation incubated for 72 hrs by LC-MS analysis; assay type: physicochemical; settings: pH 5.8, 72 h
[18] = Stability of compound in 50 mM Tris-HCL buffer at pH 7.4 assessed as 1-(boronomethyl)-1-(2-(2-(2-(((2R,3R,4S,5S,6R)-3,4,5-trihydroxy-6-(hydroxymethyl)tetrahydro-2H-pyran-2-yl)oxy)ethoxy)ethoxy)ethyl)piperidin1ium formation incubated for 72 hrs by LC-MS analysis; assay type: physicochemical; settings: pH 7.4, 72 h
[19] = Stability of compound in 0.05 M HCL assessed as 1-(boronomethyl)-1-(2-(2-(2-(((2R,3R,4S,5S,6R)-3,4,5-trihydroxy-6-(hydroxymethyl)tetrahydro-2H-pyran-2-yl)oxy)ethoxy)ethoxy)ethyl)piperidin-1-ium formation incubated for 72 hrs by LC-MS analysis; assay type: physicochemical; settings: buffer
[20] = Stability of compound in 20 mM CH3COONH4 buffer at pH 5.8 assessed as 4-(boronomethyl)-4-(2-(2-(2-(((2R,3R,4S,5S,6R)-3,4,5-trihydroxy-6-(hydroxymethyl)tetrahydro-2H-pyran-2-yl)oxy)ethoxy)ethoxy)ethyl)morpholin-4-ium formation incubated for 72 hrs by LC-MS analysis; assay type: physicochemical; settings: pH 5.8, 72 h
[21] = Metabolic stability in mouse liver microsomes assessed as drug hydrolysis by measuring 4-(boronomethyl)-4-(2-(2-(2-(((2R,3R,4S,5S,6R)-3,4,5-trihydroxy-6-(hydroxymethyl)tetrahydro-2H-pyran-2-yl)oxy)ethoxy)ethoxy)ethyl)morpholin-4-ium incubated for 1 hrs by LC-MS/MS analysis; assay type: ADME, Microsome
[22] = Stability of compound in 0.3 % H2O2 assessed as (2R,3S,4S,5R,6R)-2-(hydroxymethyl)-6-(2-(2-(2-morpholinoethoxy)ethoxy)ethoxy)tetrahydro-2H-pyran-3,4,5-triol formation incubated for 1 hrs by LC-MS analysis; assay type: physicochemical
[23] = Stability of compound in 0.9 % saline solution assessed as 4-(boronomethyl)-4-(2-(2-(2-(((2R,3R,4S,5S,6R)-3,4,5-trihydroxy-6-(hydroxymethyl)tetrahydro-2H-pyran-2-yl)oxy)ethoxy)ethoxy)ethyl)morpholin-4-ium formation incubated for 72 hrs by LC-MS analysis; assay type: physicochemical; settings: buffer
[24] = Stability of compound in 0.05 M HCL assessed as 4-(boronomethyl)-4-(2-(2-(2-(((2R,3R,4S,5S,6R)-3,4,5-trihydroxy-6-(hydroxymethyl)tetrahydro-2H-pyran-2-yl)oxy)ethoxy)ethoxy)ethyl)morpholin-4-ium formation incubated for 72 hrs by LC-MS analysis; assay type: physicochemical; settings: buffer
[25] = Stability of compound in 50 mM Tris-HCL buffer at pH 7.4 assessed as 4-(boronomethyl)-4-(2-(2-(2-(((2R,3R,4S,5S,6R)-3,4,5-trihydroxy-6-(hydroxymethyl)tetrahydro-2H-pyran-2-yl)oxy)ethoxy)ethoxy)ethyl)morpholin4ium formation incubated for 72 hrs by LC-MS analysis; assay type: physicochemical; settings: pH 7.4, 72 h
[26] = Stability of compound in 0.5 M NaOH assessed as 4-methyl-4-(2-(2-(2-(((2R,3R,4S,5S,6R)-3,4,5-trihydroxy-6-(hydroxymethyl)tetrahydro-2H-pyran-2-yl)oxy)ethoxy)ethoxy)ethyl)morpholin-4-ium formation incubated for 72 hrs by LC-MS analysis; assay type: physicochemical
[27] = Stability of compound in 0.5 M NaOH assessed as 4-(boronomethyl)-4-(2-(2-(2-(((2R,3R,4S,5S,6R)-3,4,5-trihydroxy-6-(hydroxymethyl)tetrahydro-2H-pyran-2-yl)oxy)ethoxy)ethoxy)ethyl)morpholin-4-ium formation incubated for 72 hrs by LC-MS analysis; assay type: physicochemical
[28] = Stability of compound in 20 mM CH3COONH4 buffer at pH 5.8 assessed as 1-borono-N,N-dimethyl-N-((1-(2-(2-(2-(((2R,3R,4S,5S,6R)-3,4,5-trihydroxy-6-(hydroxymethyl)tetrahydro-2H-pyran-2-yl)oxy)ethoxy)ethoxy)ethyl)-1H-1,2,3-triazol-4-yl)methyl)methanaminium formation incubated for 72 hrs by LC-MS analysis; assay type: physicochemical; settings: pH 5.8, 72 h
[29] = Stability of compound in 0.05 M HCL assessed as 1-borono-N,N-dimethyl-N-((1-(2-(2-(2-(((2R,3R,4S,5S,6R)-3,4,5-trihydroxy-6-(hydroxymethyl)tetrahydro-2H-pyran-2-yl)oxy)ethoxy)ethoxy)ethyl)-1H-1,2,3-triazol-4-yl)methyl)methanaminium formation incubated for 72 hrs by LC-MS analysis; assay type: physicochemical; settings: buffer
[30] = Stability of compound in 50 mM Tris-HCL buffer at pH 7.4 assessed as 1-borono-N,N-dimethyl-N-((1-(2-(2-(2-(((2R,3R,4S,5S,6R)-3,4,5-trihydroxy-6-(hydroxymethyl)tetrahydro-2H-pyran-2-yl)oxy)ethoxy)ethoxy)ethyl)-1H-1,2,3-triazol-4-yl)methyl)methanaminium formation incubated for 72 hrs by LC-MS analysis; assay type: physicochemical; settings: pH 7.4, 72 h
[31] = Metabolic stability in mouse liver microsomes assessed as drug hydrolysis 1-borono-N,N-dimethyl-N-((1-(2-(2-(2-(((2R,3R,4S,5S,6R)-3,4,5-trihydroxy-6-(hydroxymethyl)tetrahydro-2H-pyran-2-yl)oxy)ethoxy)ethoxy)ethyl)-1H-1,2,3-triazol-4-yl)methyl)methanaminium formation incubated for 1 hrs by LC-MS/MS analysis; assay type: ADME, Microsome
[32] = Stability of compound in 0.5 M NaOH assessed as N,N,N-trimethyl-1-(1-(2-(2-(2-(((2R,3R,4S,5S,6R)-3,4,5-trihydroxy-6-(hydroxymethyl)tetrahydro-2H-pyran-2-yl)oxy)ethoxy)ethoxy)ethyl)-1H-1,2,3-triazol-4-yl)methanaminium formation incubated for 72 hrs by LC-MS analysis; assay type: physicochemical
[33] = Stability of compound in 0.3 % H2O2 assessed as (2R,3R,4S,5S,6R)-2-(2-(2-(2-(4-((dimethylamino)methyl)-1H-1,2,3-triazol-1-yl)ethoxy)ethoxy)ethoxy)-6-(hydroxymethyl)tetrahydro-2H-pyran-3,4,5-triol formation incubated for 1 hrs by LC-MS analysis; assay type: physicochemical
[34] = Stability of compound in 0.9 % saline solution assessed as 1-borono-N,N-dimethyl-N-((1-(2-(2-(2-(((2R,3R,4S,5S,6R)-3,4,5-trihydroxy-6-(hydroxymethyl)tetrahydro-2H-pyran-2-yl)oxy)ethoxy)ethoxy)ethyl)-1H-1,2,3-triazol-4-yl)methyl)methanaminium formation incubated for 72 hrs by LC-MS analysis; assay type: physicochemical; settings: buffer
[35] = Stability of compound in 0.5 M NaOH assessed as 1-borono-N,N-dimethyl-N-((1-(2-(2-(2-(((2R,3R,4S,5S,6R)-3,4,5-trihydroxy-6-(hydroxymethyl)tetrahydro-2H-pyran-2-yl)oxy)ethoxy)ethoxy)ethyl)-1H-1,2,3-triazol-4-yl)methyl)methanaminium formation incubated for 72 hrs by LC-MS analysis; assay type: physicochemical

K [5]	half-life [6]	remaining at 1 h [7]	K [8]	half-life [9]	half-life [11]	K [12]	K [13]	half-life [14]	half-life [15]	K [16]	SMILES	also measured
0.078	4.76 h	14.1%	0.146	8.82 h	4.95 h	0.14	0.383	0.108 h	1.81 h	6.439	OC[C@H]1O[C@@H](OCCOCCOCC[N+]2(C[B-](F)(F)F)CCCCC2)[C@H](O)[C@@H](O)[C@@H]1O	Stability [1]: Stable; Stability [2]: Stable; Stability [3]: Stable; Drug metabolism [4]: metabolite_detected; Stability [10]: Stable; Stability [17]: Stable; Stability [18]: Stable; Stability [19]: Stable
0.021	10.1 h	2.73%	0.068	32.7 h	11.3 h	0.061	0.136	0.301 h	5.11 h	2.302	OC[C@H]1O[C@@H](OCCOCCOCC[N+]2(C[B-](F)(F)F)CCOCC2)[C@H](O)[C@@H](O)[C@@H]1O	Stability [20]: Stable; Drug metabolism [21]: metabolite_detected; Stability [22]: Stable; Stability [23]: Stable; Stability [24]: Stable; Stability [25]: Stable; Stability [26]: Stable; Stability [27]: Stable
0.003	≥ 58 h	1.2%	0.005	≥ 15.7 h	36 h	0.019	0.018	1.42 h	38.4 h	0.489	C[N+](C)(Cc1cn(CCOCCOCCO[C@@H]2O[C@H](CO)[C@@H](O)[C@H](O)[C@H]2O)nn1)C[B-](F)(F)F	Stability [28]: Stable; Stability [29]: Stable; Stability [30]: Stable; Drug metabolism [31]: metabolite_detected; Stability [32]: Stable; Stability [33]: Stable; Stability [34]: Stable; Stability [35]: Stable
